Drawing on patent US20230348495A1, “A COMPOUND HAVING INHIBITORY ACTIVITY AGAINST KRAS G12D MUTATION” (TAIHO PHARMACEUTICAL CO., LTD., priority 2019, published 2023), this text covers IC50 for 14 compounds.

For test [1], the target named is KRAS G12D (Homo sapiens (Human), UniProt P01116, G12D). Briefly: Inhibitory activity on KRAS G12D nucleotide (GDP-GTP) exchange reaction in vitro (SOS1-dependent, BODIPY FL GDP). Format: biochemical. Conditions: BODIPY FL GDP-bound KRAS G12D, compound 25° C. 1 hour, then SOS1 and GMPPNP 30 minutes. The source says:
Test Example 1: Evaluation of inhibitory activity of compounds on KRAS G12D nucleotide (GDP-GTP) exchange reaction in vitro
Recombinant KRAS G12D (conjugated N-terminus His6-tag, TEV protease cleavage site and KRAS G12D residues 1-169 (SEQ ID NO: 1), prepared by the method described as below) and cleaved recombinant SOS1 (residues 564-1049(SEQ ID NO: 2), prepared by the method as below) proteins were expressed in E. coli and purified by affinity chromatography.
To prepare the recombinant KRAS G12D, the codon-optimized DNA sequence for the recombinant KRAS G12D (conjugated N-terminus His6-tag, TEV protease cleavage site and KRAS G12D residues 1-169 (SEQ ID NO: 3))was synthesized by GeneArt Technology (Life Technologies, Carlsbad, CA, US). The construct was subcloned into the expression vector pET28a and transformed into Escherichia coli BL21 (DE3) strains (Novagen, Madison, WI, US).
The transformed strain was cultivated in 2 L Luria Broth medium with 25 μg/mL kanamycin at a temperature of 37° C. to a density of 0.6 (OD600), then induced for expression with […] IPTG and further cultivated for 4 h. The cell pellet was resuspended in ice-cold lysis buffer containing 50 mM Tris-HCl (pH 7.5), 200 mM NaCl, and 100 μM TCEP (tris(2-carboxyethyl)phosphine).
After sonication, the disrupted debris was removed by centrifugation. The supernatant was applied on to Ni-NTA affinity gels, and the recombinant human KRAS (G12D) eluted fraction was collected. The buffer of the collected fraction was exchanged to the buffer containing 50 mM Tris-HCl (pH 7.5), 200 mM NaCl, 10% Glycerol, and 5 mM DTT by PD-10 column (GE-Healthcare, Chicago, IL, US).
To prepare the cleaved recombinant SOS1, the codon optimized DNA sequences for the recombinant SOS1 (residues 564-1049 with a conjugated N-terminus His6-tag and TEV protease cleavage site (SEQ ID NO: 4)) was synthesized by GeneArt Technology (Life Technologies). The construct was subcloned into the expression vector pET28a and transformed into Escherichia coli BL21 (DE3) strains (Novagen, Madison, WI, USA).
The transformed strain was cultivated in 2 L Terrific Broth medium with 25 μg/mL kanamycin at a temperature of 37° C. to a density of 0.8 (OD600), then shifted to a temperature of 16° C., induced for expression with […] IPTG, and further cultivated for 16 h. The cell pellet was resuspended in ice-cold lysis buffer containing 50 mM Tris-HCl (pH 7.5), 200 mM NaCl, and 100 μM TCEP.
After sonication, the disrupted debris was removed by centrifugation. The supernatant was applied on to Ni-NTA affinity gels, and the recombinant human SOS1 eluted fraction was collected. Then, His6-tagged TEV protease was added to the collected fraction, dialyzed with the ice-cold lysis buffer for 16 h at a temperature of 4° C., and applied on to Ni-NTA affinity gels. The flow-through fraction containing the tag-cleavaged recombinant human SOS1 was collected. The buffer of the collected fraction was exchanged to the buffer containing 50 mM Tris-HCl (pH 7.5), 200 mM NaCl, 10% Glycerol, and 5 mM DTT by PD-10 column (GE-Healthcare).
To prepare BODIPY FL (fluorescent dye) GDP-bound KRAS G12D protein, 50 μM KRAS G12D protein was incubated with 0.5 mM BODIPY FL GDP in a loading buffer (20 mM Tris-HCl (pH 7.5), 50 mM NaCl, 1 mM DTT and 2.5 mM EDTA) for 1 hour on ice. After the incubation, MgCl2 was added to a final concentration of 10 mM, followed by incubation at room temperature for 30 minutes.
The mixture was allowed to pass through a NAP-5 column to remove free nucleotides and purified BODIPY FL GDP-bound KRAS G12D protein was used for compound evaluation.
For the measurement of the inhibitory activity of compounds on GDP-GTP exchange rate of recombinant KRAS G12D, BODIPY FL GDP-bound KRAS G12D protein was incubated with various concentrations of compound in a reaction buffer (20 mM Tris-HCl (pH 7.5), 100 mM NaCl, 1 mM MgCl2, 2 mM DTT, 0.1% Tween 20) at 25° C. for 1 hour. […]

The subject of test [2] is KRAS-G12D mutant cell line (A-427). Briefly: Growth inhibition activity on KRAS-G12D mutant cell line (A-427), CellTiter-Glo 3D. Format: cell-based. As to conditions: Homo sapiens, 72 h, A-427 cells, 3-day culture with compound, read-out: A427 CTX IC50. The method, then: Test Example 2: A measurement test of growth inhibition activity on KRAS-G12D mutant cell line (A-427) (in vitro) A-427 cells (ATCC, Cat #: HTB-53), which are a KRAS-G12D mutant human lung cancer cell line, were suspended in a 10% fetal bovine serum-containing E-MEM medium (manufactured by Fujifilm Wako Pure Chemical Corporation). The cell suspension was seeded into each well of a 384-well U bottom microplate and cultured in an incubator containing 5% CO2 gas at 37° C. for 1 day.
The compound of the present invention was dissolved in DMSO, and the test compound was diluted with DMSO to give a concentration 500 times the final concentration. The solution of the test compound in DMSO was diluted with the medium used for suspending cells and added to each well of the cell-culture plate to give a DMSO final concentration of 0.2%, followed by culture in an incubator containing 5% CO2 gas at 37° C. for another 3 days. The cell count after a 3-day culture in the presence of the compound was measured using CellTiter-Glo 3D Reagent (manufactured by Promega Corporation).
All wells were added with CellTiter-Glo 3D Reagent and mixed for 10 minutes. 30 minutes after mixing, luminescence was measured by a plate reader. The growth inhibition rate was calculated from the following equation, and the concentration of the test compound at which 50% inhibition was achieved (IC50 (μM)) was determined.
Growth Inhibition Rate(%)=(C−T)/(C)×100
T: the emission intensity in a well into which a test compound was added.
C: the emission intensity in a well into which a test compound was not added.

Sequence of KRAS G12D (P01116 other isoform, or with tags, fused parts or gaps G12D (already in the parent)): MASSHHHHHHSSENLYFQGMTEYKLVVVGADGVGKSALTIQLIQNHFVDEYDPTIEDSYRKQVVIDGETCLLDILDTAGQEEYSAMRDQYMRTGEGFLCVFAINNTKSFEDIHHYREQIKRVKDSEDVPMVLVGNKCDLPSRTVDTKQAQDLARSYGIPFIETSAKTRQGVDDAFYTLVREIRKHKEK

Compound `CN1CCC[C@@H]1COc1nc2c(c(N3CC4CCC(C3)N4)n1)CCN(c1cc(O)cc3cccc(Br)c13)C2` [Example 26, 4-(4-(3,8-diazabicyclo[3.2.1]octan-3-yl)-2-(((R)-1-methylpyrrolidin-2-yl)methoxy)-5,8-dihydropyrido[3,4-d]pyrimidin-7(6H)-yl)-5-bromonaphthalen-2-ol] had an IC50 in test [1] of 19.9 nM.

Take `CN(C)CC1(COc2nc3c(c(N4CC5CCC(C4)N5)n2)CCN(c2cc(O)cc4cccc(I)c24)C3)CC1` [Example 7, 4-(4-(3,8-diazabicyclo[3.2.1]octan-3-yl)-2-((1-((dimethylamino)methyl)cyclopropyl)methoxy)-5,8-dihydropyrido[3,4-d]pyrimidin-7(6H)-yl)-5-iodonaphthalen-2-ol]: the IC50 in test [1] stood at 0.7 nM; in test [2], 580 nM. For the compound `Cc1cccc2cc(O)cc(N3CCc4c(nc(OCC5(CN6CCOCC6)CC5)nc4N4CC5CCC(C4)N5)C3)c12` [Example 6, 4-(4-(3,8-diazabicyclo[3.2.1]octan-3-yl)-2-((1-(morpholinomethyl)cyclopropyl)methoxy)-5,8-dihydropyrido[3,4-d]pyrimidin-7(6H)-yl)-5-methylnaphthalen-2-ol], the figures for the IC50 in test [1] and in test [2] were 3.2 nM and 550 nM, respectively. As for `CN1C[C@H](F)C[C@H]1COc1nc2c(c(N3CC4CCC(C3)N4)n1)CCN(c1cc(O)cc3cccc(Br)c13)C2` [Example 27, 4-(4-(3,8-diazabicyclo[3.2.1]octan-3-yl)-2-(((2S,4R)-4-fluoro-1-methylpyrrolidin-2-yl)methoxy)-5,8-dihydropyrido[3,4-d]pyrimidin-7(6H)-yl)-5-bromonaphthalen-2-ol], the IC50 in test [1] was 18.5 nM; in test [2] it was 650 nM. The corresponding values for `C#Cc1cccc2cc(O)cc(C3Cc4nc(OCC5(CN(C)C)CC5)nc(N5CC6CCC(C5)N6)c4CO3)c12` (stereo not shown) [Example 23, 4-(4-(3,8-diazabicyclo[3.2.1]octan-3-yl)-2-((1-((dimethylamino)methyl)cyclopropyl)methoxy)-7,8-dihydro-5H-pyrano[4,3-d]pyrimidin-7-yl)-5-ethynylnaphthalen-2-ol] are 3 nM and 1470 nM.

With `Oc1cc(N2CCc3c(nc(OCC4(CN5CCOCC5)CC4)nc3N3CC4CCC(C3)N4)C2)c2c(I)cccc2c1` [Example 9, 4-(4-(3,8-diazabicyclo[3.2.1]octan-3-yl)-2-((1-(morpholinomethyl)cyclopropyl)methoxy)-5,8-dihydropyrido[3,4-d]pyrimidin-7(6H)-yl)-5-iodonaphthalen-2-ol], the IC50 came out at 0.7 nM in test [1] and 350 nM in test [2]. In the case of `CN(C)CC1(COc2nc3c(c(N4C[C@@H]5CC[C@H]4CN5)n2)CCN(c2cc(O)cc4cccc(Br)c24)C3)CC1` [Example 20, 4-(4-((1S,4S)-2,5-diazabicyclo[2.2.2]octan-2-yl)-2-((1-((dimethylamino)methyl)cyclopropyl)methoxy)-5,8-dihydropyrido[3,4-d]pyrimidin-7(6H)-yl)-5-bromonaphthalen-2-ol], the IC50 was determined as 3 nM in test [1] and 1950 nM in test [2]. With `Oc1cc(N2CCc3c(nc(OCC4(CN5CCOCC5)CC4)nc3N3CC4CCC(C3)N4)C2)c2c(Br)cccc2c1` [Example 3, 4-(4-(3,8-diazabicyclo[3.2.1]octan-3-yl)-2-((1-(morpholinomethyl)cyclopropyl)methoxy)-5,8-dihydropyrido[3,4-d]pyrimidin-7 (6H)-yl) -5-bromonaphthalen-2-ol], the half-inhibitory concentration (IC50) in test [2] turned out to be 590 nM. Take `C=Cc1cccc2cc(O)cc(C(=O)N3Cc4nc(OCC5(CN6CCOCC6)CC5)nc(N5CC6CCC(C5)N6)c4C3)c12` [Example 35, (4-(3,8-diazabicyclo[3.2.1]octan-3-yl)-2-((1-(morpholinomethyl)cyclopropyl)methoxy)-5,7-dihydro-6H-pyrrolo[3,4-d]pyrimidin-6-yl) (3-hydroxy-8-vinylnaphthalen-1-yl) methanone]: the IC50 in test [1] is 13.5 nM; in test [2], 8840 nM. The corresponding values for `CN(C)CC1(COc2nc3c(c(N4CC5CCC(C4)N5)n2)CCN(c2cc(O)cc4cccc(Br)c24)C3)CC1` [Example 1, 4-(4-(3,8-diazabicyclo[3.2.1]octan-3-yl)-2-((1-((dimethylamino)methyl)cyclopropyl)methoxy)-5,8-dihydropyrido[3,4-d]pyrimidin-7(6H)-yl)-5-bromonaphthalen-2-ol] are 0.8 nM and 1170 nM. The corresponding values for `C#Cc1cccc2cc(O)cc(C3Cc4nc(OCC5(CN6CCOCC6)CC5)nc(N5CC6CCC(C5)N6)c4CO3)c12` (stereo not shown) [Example 33, 4-(4-(3,8-diazabicyclo[3.2.1]octan-3-yl)-2-((1-(morpholinomethyl)cyclopropyl)methoxy)-7,8-dihydro-5H-pyrano[4,3-d]pyrimidin-7-yl)-5-ethynylnaphthalen-2-ol] are 11.3 nM and 1270 nM. The corresponding values for `CN(C)[C@@H]1CC[C@@H]1COc1nc(N2CC3CCC(C2)N3)c2ccc(-c3cc(O)cc4ccccc34)c(F)c2n1` (relative stereo) [Example 17, 4-(4-(3,8-diazabicyclo[3.2.1]octan-3-yl)-2-((cis-2-(dimethylamino)cyclobutyl)methoxy)-8-fluoroquinazolin-7-yl)naphthalen-2-ol] are 14.6 nM and 1290 nM. Take `CCc1cc2c(N3CC4CCC(C3)N4)nc(OCC3(CN(C)C)CC3)nc2c(F)c1-c1cc(O)cc2ccccc12` [Example 19, 4-(4-(3,8-diazabicyclo[3.2.1]octan-3-yl)-2-((1-((dimethylamino)methyl)cyclopropyl)methoxy)-6-ethyl-8-fluoroquinazolin-7-yl)naphthalen-2-ol]: the IC50 in test [1] was 7.1 nM; in test [2], 1590 nM.

In turn, `Ic1cccc2cccc(N3CCc4c(nc(OCC5(CN6CCOCC6)CC5)nc4N4CC5CCC(C4)N5)C3)c12` [Example 25, 4-((1-(((4-(3,8-diazabicyclo[3.2.1]octan-3-yl)-7-(8-iodonaphthalen-1-yl)-5,6,7,8-tetrahydropyrido[3,4-d]pyrimidin-2-yl)oxy)methyl)cyclopropyl)methyl)morpholine] had an IC50 in test [1] of 39.8 nM.
